How the values were obtained:
[1] = tested on: barnyardgrass (Echinochloa crus-galli); assay: Test A preemergence, visual injury rating 0-100 (0 no effect, 100 complete control); type: in vivo; settings: for Barnyardgrass plant response rating (0 to 100 scale): 125 g ai/ha; for Barnyardgrass plant response rating: 500 g ai/ha, 0 to 100 scale
[2] = tested on: foxtail, green (green foxtail, Setaria viridis); assay: Test A preemergence, visual injury rating 0-100; type: in vivo; settings: for Foxtail, Green plant response rating: 0 to 100 scale
kochia (Kochia scoparia) [3] = assay: Test A preemergence, visual injury rating 0-100; type: in vivo; settings: for Kochia plant response rating: 0 to 100 scale
[4] = tested on: pigweed (Amaranthus retroflexus); assay: Test A preemergence, visual injury rating 0-100; type: in vivo; settings: for Pigweed plant response rating: 0 to 100 scale
[5] = tested on: ragweed (common ragweed, Ambrosia elatior); assay: Test A preemergence, visual injury rating 0-100; type: in vivo; settings: for Ragweed plant response rating: 0 to 100 scale
[6] = tested on: ryegrass, Italian (Italian ryegrass, Lolium multiflorum); assay: Test A preemergence, visual injury rating 0-100; type: in vivo; settings: for Ryegrass, Italian plant response rating: 0 to 100 scale
[7] = tested on: barnyardgrass (Echinochloa crus-galli); assay: Test A postemergence, visual injury rating 0-100; type: in vivo; settings: 0 to 100 scale
[8] = tested on: blackgrass (Alopecurus myosuroides); assay: Test A postemergence, visual injury rating 0-100; type: in vivo; settings: 0 to 100 scale
corn (Zea mays) = assay: Test A postemergence, visual injury rating 0-100; type: in vivo; settings: 0 to 100 scale
[9] = tested on: foxtail, green (green foxtail, Setaria viridis); assay: Test A postemergence, visual injury rating 0-100; type: in vivo; settings: 0 to 100 scale
[10] = tested on: galium (catchweed bedstraw, Galium aparine); assay: Test A postemergence, visual injury rating 0-100; type: in vivo; settings: 0 to 100 scale
kochia (Kochia scoparia) [11] = assay: Test A postemergence, visual injury rating 0-100; type: in vivo; settings: 0 to 100 scale
[12] = tested on: pigweed (Amaranthus retroflexus); assay: Test A postemergence, visual injury rating 0-100; type: in vivo; settings: 0 to 100 scale
[13] = tested on: ragweed (common ragweed, Ambrosia elatior); assay: Test A postemergence, visual injury rating 0-100; type: in vivo; settings: 0 to 100 scale
[14] = tested on: ryegrass, Italian (Italian ryegrass, Lolium multiflorum); assay: Test A postemergence, visual injury rating 0-100; type: in vivo; settings: 0 to 100 scale
[15] = tested on: wheat (Triticum aestivum); assay: Test A postemergence, visual injury rating 0-100; type: in vivo; settings: 0 to 100 scale
[16] = tested on: ducksalad (Heteranthera limosa); assay: Test B flooded paddy test, visual rating 0-100; settings: Flood, 250 g ai/ha, applied to paddy water, rated after 13 to 15 days
[17] = tested on: barnyardgrass (Echinochloa crus-galli); assay: Test B flooded paddy test, visual rating 0-100; settings: Flood, 250 g ai/ha, applied to paddy water, rated after 13 to 15 days
rice (Oryza sativa) = assay: Test B flooded paddy test, visual rating 0-100 (0 no effect, 100 complete control); settings: Flood, 250 g ai/ha, applied to paddy water, rated after 13 to 15 days

Structure (SMILES) | Barnyardgrass plant response rating (0 to 100 scale) [1] | Barnyardgrass plant response rating [1] | Foxtail, Green plant response rating (0 to 100 scale) ([2]; 125 g ai/ha) | Kochia plant response rating (0 to 100 scale) (kochia (Kochia scoparia) [3]; 125 g ai/ha) | Pigweed plant response rating (0 to 100 scale) ([4]; 125 g ai/ha) | Ragweed plant response rating (0 to 100 scale) ([5]; 125 g ai/ha) | Ryegrass, Italian plant response rating (0 to 100 scale) ([6]; 125 g ai/ha) | Barnyardgrass plant response rating ([7]; 125 g ai/ha) | Barnyardgrass plant response rating ([7]; 500 g ai/ha) | Blackgrass plant response rating ([8]; 125 g ai/ha) | Blackgrass plant response rating ([8]; 500 g ai/ha) | Corn plant response rating (corn (Zea mays); 125 g ai/ha) | Corn plant response rating (corn (Zea mays); 500 g ai/ha) | Foxtail, Green plant response rating ([9]; 125 g ai/ha) | Foxtail, Green plant response rating ([9]; 500 g ai/ha) | Kochia plant response rating (kochia (Kochia scoparia) [11]; 125 g ai/ha) | Kochia plant response rating (kochia (Kochia scoparia) [11]; 500 g ai/ha) | Pigweed plant response rating ([12]; 125 g ai/ha) | Pigweed plant response rating ([12]; 500 g ai/ha) | Ragweed plant response rating ([13]; 125 g ai/ha) | further results
CC1=[N+]([O-])C(C(=O)Nc2cccc(F)c2F)C(c2ccc(Br)cc2)C1 (racemic) [Compound 20] | 60 | 90 | 60 | 0 | 60 | 20 | 0 | 10 | 50 | 0 | 30 | 0 | 0 | 0 | 60 | 0 | 30 | 0 | 40 | 0 | Foxtail, Green plant response rating ([2]; 500 g ai/ha): 90; Kochia plant response rating (kochia (Kochia scoparia) [3]; 500 g ai/ha): 50; Pigweed plant response rating ([4]; 500 g ai/ha): 80; Ragweed plant response rating ([5]; 500 g ai/ha): 60; Ryegrass, Italian plant response rating ([6]; 500 g ai/ha): 20; Galium plant response rating ([10]; 125 g ai/ha): 30; Galium plant response rating ([10]; 500 g ai/ha): 40; Ragweed plant response rating ([13]; 500 g ai/ha): 30; Ryegrass, Italian plant response rating ([14]; 125 g ai/ha): 0; Ryegrass, Italian plant response rating ([14]; 500 g ai/ha): 30; Wheat plant response rating ([15]; 125 g ai/ha): 0; Wheat plant response rating ([15]; 500 g ai/ha): 30; Ducksalad plant response rating (0 to 100 scale) [16]: 100; Barnyardgrass plant response rating (0 to 100 scale) [17]: 95; Rice plant response rating (0 to 100 scale) (rice (Oryza sativa)): 0
CC1=[N+]([O-])C(C(=O)Nc2cccc(C#N)c2F)C(c2ccc(C(F)(F)F)cc2)C1 (racemic) [Compound 28] | 80 | 100 | 90 | 0 | 90 | 80 | 20 | 20 | 90 | 0 | 40 | 0 | 0 | 30 | 90 | 0 | 20 | 0 | 70 | 0 | Foxtail, Green plant response rating ([2]; 500 g ai/ha): 100; Kochia plant response rating (kochia (Kochia scoparia) [3]; 500 g ai/ha): 70; Pigweed plant response rating ([4]; 500 g ai/ha): 100; Ragweed plant response rating ([5]; 500 g ai/ha): 100; Ryegrass, Italian plant response rating ([6]; 500 g ai/ha): 20; Galium plant response rating ([10]; 125 g ai/ha): 70; Galium plant response rating ([10]; 500 g ai/ha): 70; Ragweed plant response rating ([13]; 500 g ai/ha): 70; Ryegrass, Italian plant response rating ([14]; 125 g ai/ha): 0; Ryegrass, Italian plant response rating ([14]; 500 g ai/ha): 20; Wheat plant response rating ([15]; 125 g ai/ha): 0; Wheat plant response rating ([15]; 500 g ai/ha): 0; Ducksalad plant response rating (0 to 100 scale) [16]: 0; Barnyardgrass plant response rating (0 to 100 scale) [17]: 30; Rice plant response rating (0 to 100 scale) (rice (Oryza sativa)): 0
CC1=[N+]([O-])C(C(=O)Nc2ccc(F)cc2F)C(c2ccc(C(F)(F)F)cc2)C1 (racemic) [Compound 46] | 70 | 100 | 90 | 0 | 50 | 0 | 0 | 10 | 90 | 20 | 70 | 0 | 40 | 40 | 90 | 0 | 40 | 0 | 30 | 0 | Foxtail, Green plant response rating (0 to 100 scale) ([2]; 500 g ai/ha): 100; Kochia plant response rating (0 to 100 scale) (kochia (Kochia scoparia) [3]; 500 g ai/ha): 90; Pigweed plant response rating (0 to 100 scale) ([4]; 500 g ai/ha): 90; Ragweed plant response rating (0 to 100 scale) ([5]; 500 g ai/ha): 90; Ryegrass, Italian plant response rating (0 to 100 scale) ([6]; 500 g ai/ha): 0; Ragweed plant response rating ([13]; 500 g ai/ha): 30; Ryegrass, Italian plant response rating ([14]; 125 g ai/ha): 0; Ryegrass, Italian plant response rating ([14]; 500 g ai/ha): 40; Wheat plant response rating ([15]; 125 g ai/ha): 0; Wheat plant response rating ([15]; 500 g ai/ha): 20; Ducksalad plant response rating (0 to 100 scale) [16]: 100; Barnyardgrass plant response rating (0 to 100 scale) [17]: 40; Rice plant response rating (0 to 100 scale) (rice (Oryza sativa)): 20
O=C(Nc1cccc(F)c1F)C1C(c2ccccc2)CC(C(F)(F)F)=[N+]1[O-] (racemic) [Compound 35] | 0 | 0 | 0 | 0 | 0 | 0 | 0 | 0 | 0 | 0 | 0 | 0 | 0 | 0 | 0 | 0 | 0 | 0 | 0 | 0 | Foxtail, Green plant response rating (0 to 100 scale) ([2]; 500 g ai/ha): 0; Kochia plant response rating (0 to 100 scale) (kochia (Kochia scoparia) [3]; 500 g ai/ha): 0; Pigweed plant response rating (0 to 100 scale) ([4]; 500 g ai/ha): 0; Ragweed plant response rating (0 to 100 scale) ([5]; 500 g ai/ha): 0; Ryegrass, Italian plant response rating (0 to 100 scale) ([6]; 500 g ai/ha): 0; Ragweed plant response rating ([13]; 500 g ai/ha): 0; Ryegrass, Italian plant response rating ([14]; 125 g ai/ha): 0; Ryegrass, Italian plant response rating ([14]; 500 g ai/ha): 0; Wheat plant response rating ([15]; 125 g ai/ha): 0; Wheat plant response rating ([15]; 500 g ai/ha): 0; Ducksalad plant response rating (0 to 100 scale) [16]: 0; Barnyardgrass plant response rating (0 to 100 scale) [17]: 0; Rice plant response rating (0 to 100 scale) (rice (Oryza sativa)): 0
CC1=[N+]([O-])C(C(=O)Nc2ccccc2[S+](C)[O-])C(c2ccc(C(F)(F)F)cc2)C1 (racemic) [Compound 44] | 0 | 70 | 0 | 0 | 20 | 0 | 0 | 0 | 0 | 0 | 20 | 0 | 0 | 0 | 30 | 0 | 10 | 0 | 20 | 0 | Foxtail, Green plant response rating (0 to 100 scale) ([2]; 500 g ai/ha): 100; Kochia plant response rating (0 to 100 scale) (kochia (Kochia scoparia) [3]; 500 g ai/ha): 0; Pigweed plant response rating (0 to 100 scale) ([4]; 500 g ai/ha): 90; Ragweed plant response rating (0 to 100 scale) ([5]; 500 g ai/ha): 80; Ryegrass, Italian plant response rating (0 to 100 scale) ([6]; 500 g ai/ha): 0; Ragweed plant response rating ([13]; 500 g ai/ha): 0; Ryegrass, Italian plant response rating ([14]; 125 g ai/ha): 0; Ryegrass, Italian plant response rating ([14]; 500 g ai/ha): 0; Wheat plant response rating ([15]; 125 g ai/ha): 0; Wheat plant response rating ([15]; 500 g ai/ha): 0; Ducksalad plant response rating (0 to 100 scale) [16]: 0; Barnyardgrass plant response rating (0 to 100 scale) [17]: 0; Rice plant response rating (0 to 100 scale) (rice (Oryza sativa)): 0
